Experimental data reported in BindingDB's records for PubMed 38621327 (Hebei University).

Assays:
[1] = target: Transcriptional enhancer factor TEF-3 (Homo sapiens, UniProt Q15561); assay: Inhibition of GST-tagged recombinant TEAD4 (unknown origin) (217 to 434 residues) expressed in Escherichia coli BL21 (DE3) by fluorescence polarization assay
[2] = Binding affinity to rat heart mitochondria CPT1 assessed as inhibition constant incubated for 3 to 6 mins by Liquid scintillation counting method

Chain of Transcriptional enhancer factor TEF-3 (Q15561 whole entry, the tested form may be a part): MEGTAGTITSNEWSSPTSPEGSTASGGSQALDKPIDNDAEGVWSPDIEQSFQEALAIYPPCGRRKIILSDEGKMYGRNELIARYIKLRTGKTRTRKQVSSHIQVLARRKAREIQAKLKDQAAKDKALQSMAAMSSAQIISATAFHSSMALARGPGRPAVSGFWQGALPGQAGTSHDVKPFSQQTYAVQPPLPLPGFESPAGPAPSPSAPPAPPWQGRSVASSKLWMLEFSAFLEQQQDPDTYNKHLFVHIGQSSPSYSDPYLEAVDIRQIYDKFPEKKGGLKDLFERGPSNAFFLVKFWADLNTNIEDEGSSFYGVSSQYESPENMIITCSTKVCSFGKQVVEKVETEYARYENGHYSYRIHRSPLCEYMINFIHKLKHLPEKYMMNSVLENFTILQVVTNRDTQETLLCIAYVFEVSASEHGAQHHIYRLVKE

| Structure (SMILES) | EC50 [1] [µM] | Ki [2] [µM] |
| --- | --- | --- |
| O=C(CCl)c1ccccc1Nc1cccc(C(F)(F)F)c1 | 5.9 | – |
| CCCCCCCCCCCCCCC[C@]1(O)C[C@H](CC(=O)[O-])C[N+](C)(C)C1 | – | 2.8 |
